Test results published in patent publication US20120015901A1, “METHODS AND PREPARATIONS FOR PROTECTING CRITICALLY ILL PATIENTS” (priority 2009, published 2012).
Read-outs that look alike come from different tables or passages of the source.

Legend:
acute liver injury = conditions: cited from earlier work
[1] = system: wild type yeast (BY4741) and null mutants; experiment: Yeast chronological aging, survival plating (clonogenicity); assay type: cell-based
Procedure: Experiments were carried out in BY4741 (MATa his3Δ1 leu2Δ0 met15Δ0 ura3Δ0) and respective null mutants, obtained from Euroscarf. The double mutant Δiki3Δsas3 was generated according to Gueldener at al. (2002) Nucleic Acids Res. 30, e23 by using gene-specific URA3-knockout cassette, amplified by PCR with pUG72 as template (Lovaas & Carlin (1991) Free Radic Biol Med 11, 455-46.). […] All spe1 double mutant strains were obtained through mating and sporulation of BY4741 Δspe1 with the respective BY4742 ([…]) single mutant strains. Single and double mutant strains were verified for correct gene deletion by PCR and further checked for consistent auxotrophies. […] Strains were grown at 28° C. on SC medium containing 0.17% yeast nitrogen base (Difco), 0.5% (NH4)2SO4 and 30 mg/l of all amino acids (except 80 mg/l histidine and 200 mg/l leucine), 30 mg/l adenine, and 320 mg/l uracil with 2% glucose (SCD). […] To construct NHP6A-EGFP in pUG35-Ura (giving rise to a C-terminally tagged chimeric fusion protein under control of the met25-Promotor) the insert was amplified by PCR using genomic DNA from BY4741 as template and cloned into pUG35 using the EcoRI restriction site. The EGFP-ATG8 construct in pUG36-Ura (N-terminally tagged fusion protein) was similarly generated, using EcoRI and ClaI restriction sites.
In case of experiments with Δspe1 (FIG. 24 A-E), all strains were inoculated to 5·10^4 cells/ml. […] Therefore, for calculation of survival rates in experiments using Δiki3Δsas3, cell numbers of each sample were determined after two pulse of sonication on ice with Sonifier 250 from Benson (Duty Cycle: 35; Output Control: 2.5). Tests for apoptotic (TUNEL and Annexin V staining) and necrotic (PI staining) markers as well as markers for oxidative stress (DHE staining) were performed as described in Dod et al. (1982) Eur J Biochem 121, 401-405). For quantifications using flow cytometry (BD FACSAria), 30,000 cells were evaluated and analyzed with BD FACSDiva software. Spermidine (S4139, Sigma, Austria) and putrescine (P5780, Sigma, Austria; 1 mM final concentration) were added to stationary cultures at day 1 of the aging experiments (24 h after inoculation). 1 M aqueous stock solution of spermidine was stored in one use aliquots at −20° C. for no longer than 1 month. For adjustment of extracellular pH (pHex) to 6 (±0.5), the required amount of sodium hydroxide was added 30 h after inoculation. The pHex was maintained at approximately 6 (±0.5) throughout the aging.

For NCCCCN [putrescine, 1,4-diamino-butane], the “effect on acute liver injury” value (acute liver injury; administered 2, 5 and 8 hours after injection of cadmium chloride) is listed as “protective effect”, the “effect on acute liver injury” value (acute liver injury; administered 12, 15 and 18 h after cadmium injection) is listed as “did not provide a protective effect” and the “chronological life span of polyamine depleted cells” value [1] is listed as “restored”.
